According to patent publication US8088920B2, “3-trifluoromethyl-pyrazine-2-carboxylic acid amide derivatives as HDL-cholesterol raising agents” (Hoffmann-La Roche Inc., priority 2008, dated 2012):

system: THP-1 cells; assay: Cholesterol efflux assay; assay type: cell-based; settings: Homo sapiens; THP-1 cells differentiated to macrophages, [3H]cholesterol loaded, efflux induced by 10 μg/ml Apolipoprotein AI, 6 hrs; percent stimulation over DMSO
Description: The ability of compounds of the invention to stimulate cholesterol efflux is determined in replicate cultures of THP-1 cells in 96-well microplates. Cells are plated at an initial density of 150,000 cells/well and differentiated to macrophages with the addition of PMA (100 ng/ml) for 72 hrs in 10% fetal bovine serum, 3 μl/L of b-mercaptoethanol, RPMI-1640 medium. Cells are washed once with RPMI-1640 and loaded with RPMI-1640 medium containing 2% FCS, 50 μg/ml acetylated LDL, and 10 μCi/ml [^3H]cholesterol for 48 hours at 37° C. After loading the cells are washed once with RPMI-1640 and incubated with the compound of interest from DMSO solutions for an additional 24 hrs in RPMI-1640 medium containing 1 mg/ml fatty acid free-bovine serum albumin (BSA). Upon incubation cells are washed once, and cholesterol efflux is induced by the addition of 10 μg/ml Apolipoprotein AI in RPMI-1640 containing 1 mg/ml BSA and in the presence of the compound for an additional 6 hrs. Following incubation radioactivity is determined in the supernatants and cholesterol efflux is expressed as the percent stimulation over replicate cultures treated only with DMSO. Sigmoidal curves were fitted using the XLfit3 program (ID Business Solutions Ltd. UK) and EC50 values were determined.

Compound	EC50 [µM]
O=C(N[C@@H]1CCCC[C@H]1O)c1nc(-c2ccc(Cl)cc2)c(OCC2CC2)nc1C(F)(F)F [Example 1, 6-(4-chloro-phenyl)-5-cyclopropylmethoxy-3-trifluoromethyl-pyrazine-2-carboxylic acid ((1R,2R)-2-hydroxy-cyclohexyl)-amide]	0.61
CC(O)(CNC(=O)c1nc(-c2ccc(Cl)cc2)c(OCC(F)(F)F)nc1C(F)(F)F)C1CC1 (stereo not drawn) [Example 2, 6-(4-chloro-phenyl)-5-(2,2,2-trifluoro-ethoxy)-3-trifluoromethyl-pyrazine-2-carboxylic acid (2-cyclopropyl-2-hydroxy-propyl)-amide]	0.57
CC(O)(CNC(=O)c1nc(-c2ccc(Cl)cc2)c(OCC2CC2)nc1C(F)(F)F)C1CC1 (stereo not drawn) [Example 3, 6-(4-chloro-phenyl)-5-cyclopropylmethoxy-3-trifluoromethyl-pyrazine-2-carboxylic acid (2-cyclopropyl-2-hydroxy-propyl)-amide]	0.72
